Measurements as given in patent publication US8637511B2, “Aminopyrimidines useful as kinase inhibitors” (Vertex Pharmaceuticals Incorporated, priority 2005, dated 2014).
Like-named read-outs stand apart in the source and are kept apart here.

Tests used:
[1] = target: T1, Aurora-2 (Aurora A) (Homo sapiens, UniProt O14965); assay: Aurora-2 (Aurora A) inhibition assay, coupled enzyme; assay type: biochemical
T1 sequence (O14965 1-403): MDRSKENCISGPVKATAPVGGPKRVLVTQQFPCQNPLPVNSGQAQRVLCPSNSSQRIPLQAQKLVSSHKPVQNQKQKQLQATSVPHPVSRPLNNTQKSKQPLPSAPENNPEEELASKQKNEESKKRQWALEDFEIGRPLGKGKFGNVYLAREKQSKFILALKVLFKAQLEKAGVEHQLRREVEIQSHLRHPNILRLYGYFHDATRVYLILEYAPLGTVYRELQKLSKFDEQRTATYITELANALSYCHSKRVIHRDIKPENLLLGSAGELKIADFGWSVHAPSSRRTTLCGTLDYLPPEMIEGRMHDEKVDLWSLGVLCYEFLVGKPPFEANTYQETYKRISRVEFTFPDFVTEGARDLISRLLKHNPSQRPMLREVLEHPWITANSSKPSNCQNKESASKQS
Outline: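 Coupled pyruvate kinase/lactate dehydrogenase assay with NADH in pH 7.5 Hepes containing MgCl2, DTT and NaCl, using 40 nM Aurora-2 at 30 °C. After a 10 min preincubation, enzyme addition started the reaction, and initial rates were taken over 10 min. IC50 and Ki came from non-linear regression.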

[2] = target: T2, JAK3 (Homo sapiens, UniProt P52333); assay: biochemical
T2 sequence (P52333 1-1124): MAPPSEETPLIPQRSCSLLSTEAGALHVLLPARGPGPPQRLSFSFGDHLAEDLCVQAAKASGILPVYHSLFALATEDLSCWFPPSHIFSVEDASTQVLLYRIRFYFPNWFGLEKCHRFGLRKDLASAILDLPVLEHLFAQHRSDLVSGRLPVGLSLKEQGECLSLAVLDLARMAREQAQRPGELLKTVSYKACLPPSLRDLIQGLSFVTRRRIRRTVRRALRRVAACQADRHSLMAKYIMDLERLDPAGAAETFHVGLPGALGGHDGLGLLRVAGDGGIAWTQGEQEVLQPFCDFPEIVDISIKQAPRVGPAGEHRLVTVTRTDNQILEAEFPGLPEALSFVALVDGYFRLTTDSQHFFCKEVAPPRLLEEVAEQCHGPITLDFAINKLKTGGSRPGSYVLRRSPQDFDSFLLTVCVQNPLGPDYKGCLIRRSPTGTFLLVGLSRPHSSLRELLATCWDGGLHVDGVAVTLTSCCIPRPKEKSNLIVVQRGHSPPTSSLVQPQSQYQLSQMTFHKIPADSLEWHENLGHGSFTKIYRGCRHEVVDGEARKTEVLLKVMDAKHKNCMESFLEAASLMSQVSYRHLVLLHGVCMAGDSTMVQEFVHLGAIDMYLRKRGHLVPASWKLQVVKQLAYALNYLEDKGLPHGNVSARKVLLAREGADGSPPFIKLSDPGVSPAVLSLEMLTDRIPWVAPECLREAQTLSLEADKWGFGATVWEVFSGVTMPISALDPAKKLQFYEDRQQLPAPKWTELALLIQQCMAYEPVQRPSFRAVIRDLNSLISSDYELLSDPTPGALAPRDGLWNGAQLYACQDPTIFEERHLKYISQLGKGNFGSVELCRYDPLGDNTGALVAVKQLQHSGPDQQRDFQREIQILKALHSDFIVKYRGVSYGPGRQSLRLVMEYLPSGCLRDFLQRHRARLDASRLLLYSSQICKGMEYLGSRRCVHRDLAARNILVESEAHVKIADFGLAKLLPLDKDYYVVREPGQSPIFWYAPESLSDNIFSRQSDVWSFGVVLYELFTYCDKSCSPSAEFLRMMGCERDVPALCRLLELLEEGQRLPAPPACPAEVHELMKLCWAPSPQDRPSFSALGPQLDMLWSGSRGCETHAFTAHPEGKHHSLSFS
Description: Reactions were carried out in a kinase buffer containing 100 mM HEPES (pH 7.4), 1 mM DTT, 10 mM MgCl2, 25 mM NaCl, and 0.01% BSA. Substrate concentrations in the assay were 5 μM ATP (200 uCi/μmole ATP) and 1 μM poly(Glu)4Tyr. Reactions were carried out at 25° C. and 1 nM JAK3.
To each well of a 96 well polycarbonate plate was added 1.5 μl of a candidate JAK3 inhibitor along with 50 μl of kinase buffer containing 2 μM poly(Glu)4Tyr and 10 μM ATP. This was then mixed and 50 μl of kinase buffer containing 2 nM JAK3 enzyme was added to start the reaction. After 20 minutes at room temperature (25 C), the reaction was stopped with 50 μl of 20% trichloroacetic acid (TCA) that also contained 0.4 mM ATP. The entire contents of each well were then transferred to a 96 well glass fiber filter plate using a TomTek Cell Harvester. After washing, 60 μl of scintillation fluid was added and ^33P incorporation detected on a Perkin Elmer TopCount.

[3] = read-out: Aurora A kinase Ki value

SMILES	Ki [1, 3] [nM]	Ki [2] [nM]	Ki ([2]; read-out: JAK3 Ki value) [nM]	Ki [1] [nM]
Cc1cc(Nc2cc(N3CC(C#N)C3)nc(Sc3ccc(NC(=O)c4ccccc4Cl)cc3)n2)n[nH]1 [Compound 16]	≤ 1	10 to 500		
Cc1cc(Nc2cc(N3CC(F)(C4CC4)C3)nc(Sc3ccc(N)cc3)n2)[nH]n1 [Compound 209]	5 to 200	≤ 10		
Cc1cc(Nc2cc(N3CCC3)nc(Sc3ccc(NC(=O)CC(F)(F)F)cc3)n2)n[nH]1 [Compound 40]	≤ 1		10 to 500	
CCC(=O)Nc1ccc(Sc2nc(Nc3cc(C)n[nH]3)cc(N3CC(O)(C(C)(C)C)C3)n2)cc1 [Compound 81]	≤ 1		≤ 10	
Cc1cc(Nc2cc(N3CCC3)nc(Sc3ccc(NC(=O)CCC(F)(F)F)cc3)n2)[nH]n1 [Compound 121]	1 to 5	10 to 500		
Cc1cc(Nc2cc(N3CCC3)nc(Sc3ccc(NC(=O)c4ccc(Cl)cc4Cl)cc3)n2)n[nH]1 [Compound 162]		10 to 500		≤ 1
Cc1cc(Nc2cc(N3CC(OC(C)(C)C)C3)nc(Sc3ccc(NC(=O)c4ccccc4Cl)cc3)n2)[nH]n1 [Compound 66]		10 to 500		≤ 1
Cc1cc(Nc2cc(N3CCC3)nc(Sc3ccc(NC(=O)Cc4cccc(Cl)c4)cc3)n2)[nH]n1 [Compound 58]	1 to 5		500 to 2000	
Cc1cc(Nc2cc(N3CCC3)nc(Oc3ccc(NC(=O)c4ccccc4C(F)(F)F)cc3)n2)[nH]n1 [Compound 134]	1 to 5	10 to 500		
Cc1cc(Nc2cc(N3CCC3)nc(Sc3ccc(NC(=O)C4CCCCC4)cc3)n2)n[nH]1 [Compound 30]	1 to 5	10 to 500		
Cc1cc(Nc2cc(N3CC(C)C3)nc(Sc3ccc(NC(=O)c4ccccc4Cl)cc3)n2)n[nH]1 [Compound 39]	1 to 5		10 to 500	
CCC(=O)Nc1ccc(Sc2nc(Nc3cc(C)n[nH]3)cc(N3CC(O)(C(F)(F)F)C3)n2)cc1 [Compound 94]	1 to 5		10 to 500	
Cc1cnc(Nc2cc(N3CC(O)C3)nc(Sc3ccc(NC(=O)C4CC4)cc3)n2)s1 [Compound 3]	1 to 5		10 to 500	
Cc1cc(Nc2cc(N3CCC3)nc(Sc3ccc(C(=O)NC4CCCC4)cc3)n2)n[nH]1 [Compound 23]	5 to 200	500 to 2000		
COC1CN(c2cc(Nc3cc(C)n[nH]3)nc(Sc3ccc(NC(=O)c4ccccc4C(F)(F)F)cc3)n2)C1 [Compound 126]	≤ 1		10 to 500	
Cc1cc(Nc2cc(N3CCC3)nc(Sc3ccc(NC(=O)Cc4ccccc4)cc3)n2)n[nH]1 [Compound 35]	1 to 5	500 to 2000		
Cc1cc(Nc2cc(N3CCC3)nc(Sc3ccc(NC(=O)c4cc(C)nc(Cl)c4)cc3)n2)[nH]n1 [Compound 149]	1 to 5	10 to 500		
CCC(=O)Nc1ccc(Sc2nc(Nc3cc(C)n[nH]3)cc(N3CC(C)(OC(C)C)C3)n2)cc1 [Compound 95]	1 to 5	10 to 500		
Cc1cc(Nc2cc(N3CC(F)(C4CC4)C3)nc(Sc3ccc4nc(C(F)(F)F)cn4c3)n2)[nH]n1 [Compound 190]	1 to 5		10 to 500	
Cc1cc(Nc2cc(N3CCC3)nc(Sc3ccc(N(C)C(=O)c4ccccc4F)cc3)n2)n[nH]1 [Compound 10]	5 to 200	10 to 500		

SMILES	Ki [1, 3] [nM]	Ki [2] [nM]	Ki ([2]; read-out: JAK3 Ki value) [nM]	Ki [1] [nM]
Cc1cc(Nc2cc(N3CCC3)nc(Sc3ccc(NC(=O)C(F)(F)F)cc3)n2)[nH]n1 [Compound 158]	1 to 5		≤ 10	
CCC(=O)Nc1ccc(Sc2nc(Nc3cc(C)[nH]n3)cc(N3CC(O)C3)n2)cc1 [Compound 15]		10 to 500		1 to 5
CCC(=O)Nc1ccc(Sc2nc(Nc3cc(C4CC4)n[nH]3)cc(N3CC(C)(O)C3)n2)cc1 [Compound 76]	1 to 5	≤ 10		
Cc1cc(Nc2cc(N3CCC3)nc(Sc3ccc(NC(=O)c4ccccc4N(C)C)cc3)n2)[nH]n1 [Compound 124]	5 to 200	500 to 2000		
Cc1cc(Nc2cc(N3CCC3)nc(Sc3ccc(C(=O)NCc4ccccc4Cl)cc3)n2)n[nH]1 [Compound 24]		500 to 2000		5 to 200
Cc1cnc(Nc2cc(N3CCC3)nc(Sc3ccc(NC(=O)C4CC4)cc3)n2)s1 [Compound 4]	1 to 5	500 to 2000		
Cc1cc(Nc2cc(N3CCC3)nc(Sc3ccc(NC(=O)c4ccc(F)cc4F)cc3)n2)n[nH]1 [Compound 44]	1 to 5		10 to 500	
Cc1cc(Nc2cc(N3CC(F)C3)nc(Sc3ccc(NC(=O)c4ccccc4Cl)cc3)n2)[nH]n1 [Compound 60]	1 to 5	10 to 500		
Cc1cc(Nc2cc(N3CCC3)nc(Sc3ccc(NC(=O)C4CC4)cc3)n2)n[nH]1 [Compound 17]	1 to 5	10 to 500		
CCNC(=O)c1ccc(Sc2nc(Nc3cc(C)[nH]n3)cc(N3CCC3)n2)cc1 [Compound 20]		10 to 500		5 to 200
Cc1cc(Nc2cc(N3CC(F)(C4CC4)C3)nc(Sc3ccc(-c4ncc(C)o4)cc3)n2)[nH]n1 [Compound 175]	5 to 200	10 to 500		
CC1=NN=C(Nc2cc(N3CCC3)nc(Sc3ccc(NC(=O)c4cccc(C(F)(F)F)c4F)cc3)n2)C1 [Compound 55]		10 to 500		≤ 1
Cc1cc(Nc2cc(N3CCC3)nc(Sc3ccc(NS(C)(=O)=O)cc3)n2)[nH]n1 [Compound 150]	5 to 200	≤ 10		
Cc1ccc(S(=O)(=O)Nc2ccc(Sc3nc(Nc4cc(C)[nH]n4)cc(N4CCC4)n3)cc2)cc1 [Compound 27]		500 to 2000		1 to 5
Cc1ccc(C(=O)Nc2ccc(Sc3nc(Nc4cc(C)[nH]n4)cc(N4CCC4)n3)cc2)cc1 [Compound 28]		10 to 500		1 to 5
CC1=NN=C(Nc2cc(N3CCC3)nc(Sc3ccc(NC(=O)c4ccccc4)cc3)n2)C1 [Compound 52]	5 to 200	10 to 500		
CCC(=O)Nc1ccc(Sc2nc(Nc3cc(C)n[nH]3)cc(N3CC(C)(C#N)C3)n2)cc1 [Compound 79]	1 to 5		10 to 500	
CCC(=O)Nc1ccc(Sc2nc(Nc3cc(C)n[nH]3)cc(N3CC(C)(OC(C)(C)C)C3)n2)cc1 [Compound 96]	1 to 5	10 to 500		
Cc1cc(Nc2cc(N3CC(N4CCOCC4)C3)nc(Sc3ccc(NC(=O)CC(F)(F)F)cc3)n2)[nH]n1 [Compound 199]	≤ 1		≤ 10	
